The values below come from US12559474B2, “Triazine derivatives having virus replication inhibitory activity and pharmaceutical composition comprising the same” (priority 2021, dated 2026).

One assay concerns SARS-CoV-2. In words: microbe, parasite or virus in culture. The note with it: Severe acute respiratory syndrome coronavirus 2, VeroE6/TMPRSS2, 72 h, 50% SARS-CoV-2 infected cell death inhibitory concentration, VeroE6/TMPRSS2 cells, 3 days culture. Format: cell-based.
For a further assay, the target named is SARS-CoV-2 3CL protease (Severe acute respiratory syndrome coronavirus 2, UniProt P0DTD1). Description: biochemical. The note with it: 50% SARS-CoV-2 3CL protease inhibitory concentration, read-out: IC50.

Read-outs that look alike come from different tables or passages of the source.

Turning to `Cn1cnc(Cn2c(=O)nc(Nc3cc4cn(C)nc4cc3Cl)n(Cc3ccc(F)c(F)c3F)c2=O)n1` [II-0190], the EC50 in the assay on SARS-CoV-2 (class symbols) lay in the range of 1 to 10 µM. Also, the 50% inhibitory concentration (IC50) on SARS-CoV-2 3CL protease (given as class symbols) is less than 0.1 µM.
The matching figures for `Cn1cnc(Cn2c(=O)nc(Nc3cc4cn(C)nc4cc3Cl)n(Cc3ccc(F)cc3Br)c2=O)n1` [II-0218]: 1 to 10 µM and less than 0.1 µM.
As to `Cn1cnc(Cn2c(=O)nc(Nc3cc4c(cc3Cl)nc3n4CCN3)n(Cc3cc(Cl)c(F)cc3F)c2=O)n1` [II-0522], the concentration for a half-maximal effect (EC50) in the assay on SARS-CoV-2 (CellTiter-Glo 2.0) was determined as 15 µM. For the same molecule, the concentration for half-maximal inhibition (IC50) at SARS-CoV-2 3CL protease (RapidFire MS) amounted to 0.0041 µM.
Molecule `Cn1cnc(Cn2c(=O)nc(Nc3cc4cn(CC(C)(C)O)nc4cc3Cl)n(Cc3cc(F)c(F)c(Cl)c3)c2=O)n1` [II-0305] came in with an EC50 with SARS-CoV-2 (class symbols) of 1 to 10 µM. Moreover, the half-maximal inhibitory concentration (IC50) on SARS-CoV-2 3CL protease (given as class symbols) is less than 0.1 µM.
In the case of `Cc1cncc(-n2c(=O)nc(Nc3cc4cn(C)nc4cc3Cl)n(Cc3cc(F)c(F)cc3Cl)c2=O)c1` [II-0402], the EC50 with SARS-CoV-2 (class symbols) is less than 1 µM. The IC50 on SARS-CoV-2 3CL protease (given as class symbols) was less than 0.1 µM.
On the same counts, the results for `CC(=O)Nc1nc2ccc(Nc3nc(=O)n(-c4cncc(C)c4)c(=O)n3Cc3ccc(F)c(C#N)c3)cc2s1` [II-0316] are 1 to 10 µM and less than 0.1 µM.
On the same counts, the results for `Cn1cnc(Cn2c(=O)nc(Nc3cc4cn(CC(C)(C)O)nc4cc3Cl)n(Cc3cc(Cl)c(F)cc3F)c2=O)n1` [II-0302] are 1 to 10 µM and less than 0.1 µM.
Take `Cc1nc2cc(Br)c(Nc3nc(=O)n(Cc4ncn(C)n4)c(=O)n3Cc3cc(F)c(F)cc3F)cc2s1` [II-0417]: the EC50 in the assay with SARS-CoV-2 (class symbols) lay within 1 to 10 µM. The half-inhibitory concentration (IC50) at SARS-CoV-2 3CL protease (given as class symbols) was less than 0.1 µM.
The matching figures for `Cc1cc(F)c(C#N)cc1Cn1c(Nc2cc3cn(C)nc3cc2F)nc(=O)n(-c2cncc(Cl)c2)c1=O` [II-0365]: less than 1 µM and less than 0.1 µM.
Regarding `Cn1cnc(Cn2c(=O)nc(Nc3cc4cn(C(F)F)nc4cc3Cl)n(Cc3cc(F)c(F)c(F)c3)c2=O)n1` [Compound I-0434], in the assay with SARS-CoV-2 (class symbols), the concentration giving a half-maximal response (EC50) was in the range of 1 to 10 µM. Moreover, the concentration for half-maximal inhibition (IC50) on SARS-CoV-2 3CL protease (given as class symbols) was less than 0.1 µM.
The matching figures for `O=c1nc(Nc2ccc3nn(CC(F)F)cc3c2)n(Cc2cc(F)c(F)c(F)c2)c(=O)n1-c1cncc2ccccc12` [Compound I-0472]: less than 1 µM and less than 0.1 µM.
As for `O=c1[nH]cccc1Cn1c(=O)nc(Nc2cc3c(cc2Cl)OCC3)n(Cc2cc(F)c(F)c(F)c2)c1=O` [Compound I-0239], it took 0.225 µM to reach a half-maximal effect in the assay with SARS-CoV-2 (CellTiter-Glo 2.0) (EC50). In addition, the half-inhibitory concentration (IC50) on SARS-CoV-2 3CL protease (RapidFire MS) is 0.0039 µM.
In the assay on SARS-CoV-2 (class symbols), `Cn1cc2cc(Nc3nc(=O)n(-c4cncc(N)c4)c(=O)n3Cc3cc(Cl)c(F)cc3F)c(Cl)cc2n1` [II-0381] gave an EC50 of less than 1 µM. In addition, the 50% inhibitory concentration (IC50) on SARS-CoV-2 3CL protease (given as class symbols) is less than 0.1 µM.
For `Cn1cnc(Cn2c(=O)cc(Nc3cc4cn(CC(F)F)nc4cc3Cl)n(Cc3cc(F)c(F)c(F)c3)c2=O)n1` [II-0429], the EC50 in the assay with SARS-CoV-2 (class symbols) fell in the range of 1 to 10 µM. Also, the IC50 on SARS-CoV-2 3CL protease (given as class symbols) is less than 0.1 µM.
On to `Cn1cnc(Cn2c(=O)nc(Nc3cc4sc(N)nc4cc3Cl)n(Cc3cc(Cl)c(F)cc3F)c2=O)n1` [II-0529], for which the concentration giving a half-maximal response (EC50) in the assay with SARS-CoV-2 (class symbols) is less than 1 µM. Also, the IC50 on SARS-CoV-2 3CL protease (given as class symbols) is less than 0.1 µM.
With `Cc1cncc(-n2c(=O)nc(Nc3cc4cn(C)nc4cc3Cl)n(Cc3cc(Cl)ccc3Cl)c2=O)c1` [II-0582], the EC50 in the assay on SARS-CoV-2 (class symbols) was less than 1 µM. The IC50 at SARS-CoV-2 3CL protease (given as class symbols) was less than 0.1 µM.
Take `O=c1[nH]cccc1Cn1c(=O)nc(Nc2cccc3[nH]ccc23)n(Cc2cc(F)c(F)c(F)c2)c1=O` [Compound I-0031]: the EC50 with SARS-CoV-2 (CellTiter-Glo 2.0) is 4.06 µM; in the assay with SARS-CoV-2 (class symbols), 1 to 10 µM. For the same molecule, the results for the IC50 on SARS-CoV-2 3CL protease (given as class symbols) and on SARS-CoV-2 3CL protease (RapidFire MS) were 0.1 to 1 µM and 0.13 µM, respectively.
`Cn1cc2cc(Nc3nc(=O)n(-c4cncc(Cl)c4)c(=O)n3Cc3cc(F)c(F)c(C#N)c3)c(F)cc2n1` [II-0367] gave a 50% effective concentration (EC50) in the assay on SARS-CoV-2 (class symbols) of less than 1 µM. Besides, the half-maximal inhibitory concentration (IC50) at SARS-CoV-2 3CL protease (given as class symbols) was less than 0.1 µM.
Consider `Cn1cc2cc(Nc3nc(=O)n(-c4cncc(Cl)c4)c(=O)n3Cc3cc(Cl)c(F)cn3)c(Cl)cc2n1` [II-0592], for which the concentration for a half-maximal effect (EC50) in the assay with SARS-CoV-2 (class symbols) was 1 to 10 µM. Besides, the IC50 at SARS-CoV-2 3CL protease (given as class symbols) was less than 0.1 µM.
For `Cc1cncc(-n2c(=O)nc(Nc3cc4cn(CC(F)F)nc4cc3Cl)n(Cc3cc(C#N)ccc3C)c2=O)c1` [II-0577], a half-maximal effect in the assay with SARS-CoV-2 (CellTiter-Glo 2.0) (EC50) was put at 0.085 µM. For the same molecule, on SARS-CoV-2 3CL protease (RapidFire MS), the 50% inhibitory concentration (IC50) came to 0.0011 µM.
On the same counts, the results for `Cc1cncc(-n2c(=O)nc(Nc3cc4cn(C)nc4cc3Cl)n(Cc3cc(F)c(F)c(Cl)c3)c2=O)c1` [II-0119] are 0.183 µM and 0.0089 µM.
Turning to `Cn1cnc(Cn2c(=O)nc(Nc3cc4c(cc3Cl)OCC4)n(Cc3cc(F)c(F)c(F)c3F)c2=O)n1` [II-0017], in the assay on SARS-CoV-2 (class symbols), the 50% effective concentration (EC50) is less than 1 µM. Besides, at SARS-CoV-2 3CL protease (given as class symbols), the IC50 was less than 0.1 µM.
In turn, `Cc1cncc(-n2c(=O)nc(Nc3cc4cn(C)nc4cc3Cl)n(Cc3cc(C#N)ccc3Cc3cccc(Cl)c3)c2=O)c1` [II-0181] came in with an EC50 with SARS-CoV-2 (class symbols) of less than 1 µM. Besides, at SARS-CoV-2 3CL protease (given as class symbols), the half-maximal inhibitory concentration (IC50) is less than 0.1 µM.
Consider `Cc1cncc(-n2c(=O)nc(N(C)C3CCCCC3)n(Cc3cc(F)c(F)c(F)c3)c2=O)c1` [II-0372], for which it took 6.52 µM to reach a half-maximal effect in the assay with SARS-CoV-2 (CellTiter-Glo 2.0) (EC50). In addition, at SARS-CoV-2 3CL protease (RapidFire MS), the IC50 stood at 3.4 µM.
`Cc1cncc(-n2c(=O)nc(N3CC4(CCOC4)C3)n(Cc3cc(F)c(F)c(F)c3)c2=O)c1` [II-0376] had an EC50 in the assay with SARS-CoV-2 (CellTiter-Glo 2.0) of 7.13 µM. The half-maximal inhibitory concentration (IC50) at SARS-CoV-2 3CL protease (RapidFire MS) was 1 µM.
